Results taken from US20090155376A1, “PROTEIN HYDROLYSATE WITH ANTIDIABETIC EFFECT” (MG PHARMA INC., priority 2004, published 2009).
Where a SMILES comes first, the peptide text is derived from it.

System: male and female ICR mice
Assay: Safety test, oral administration to mice
Type: in vivo
Conditions: 10 g/kg (maximum allowable dose) or greater
Text: The peptide having the amino acid sequence Val-Val-Tyr-Pro (SEQ. ID. No. 1) prepared in Example 2 was orally administered to male and female ICR mice in an amount of 10 g/kg (maximum allowable dose) or greater, and there were no fatalities, thereby establishing the safety of the peptide.

## CC(C)[C@H](N)C(=O)N[C@H](C(=O)N[C@@H](Cc1ccc(O)cc1)C(=O)N1CCC[C@H]1C(=O)O)C(C)C [Peptide (VVYP), Val-Val-Tyr-Pro] (H-VVYP-OH)
  Fatalities: no fatalities
